Results as given in paper PMC5529566, “The cryo-EM structure of gastric H^+,K^+-ATPase with bound BYK99, a high-affinity member of K^+-competitive, imidazo[1,2-a]pyridine inhibitors” (Scientific Reports, 2017).
Values joined by “and” are separate entries in the source; they are usually repeats but may differ in a detail not shown here. Identical values can stand only once.

What was measured:
[1] = pKa and protonation of imidazo[1,2-a]pyridine; format: physicochemical; settings: at pH 7.0 of the ATPase assays
H^+,K^+-ATPase Y799A [2] = test system: H^+,K^+-ATPase Y799A; design: method as in PMID 14699149; settings: Y799A vs wild-type; cited from earlier work
H^+,K^+-ATPase L809F [3] = settings: cited from earlier work
H^+,K^+-ATPase Y799F [4] = test system: H^+,K^+-ATPase Y799F; design: method as in PMID 14699149; settings: cited from earlier work
[5] = target: H^+,K^+-ATPase A335C/C813A; design: method as in PMID 12379118; settings: cited from earlier work
H^+,K^+-ATPase Y799A [6] = target: H^+,K^+-ATPase Y799A (Sus scrofa, UniProt P19156, Y800A); experiment: ATPase assay, Y799A mutant
H^+,K^+-ATPase D137A = H^+,K^+-ATPase D137A (Sus scrofa, UniProt P19156, D138A); experiment: ATPase assay, D137A mutant
H^+,K^+-ATPase D136L = H^+,K^+-ATPase D136L (Sus scrofa, UniProt P19156, D137L); experiment: ATPase assay, D136L mutant
H^+,K^+-ATPase N138L = H^+,K^+-ATPase N138L (Sus scrofa, UniProt P19156, N139L); experiment: ATPase assay, N138L mutant
H^+,K^+-ATPase D137I = H^+,K^+-ATPase D137I (Sus scrofa, UniProt P19156, D138I); experiment: ATPase assay, D137I mutant
[7] = target: H^+,K^+-ATPase D137N/N138D (Sus scrofa, UniProt P19156, D138N/N139D); experiment: ATPase assay, D137N/N138D mutant; settings: D137N/N138D
H^+,K^+-ATPase D137N/N138D, sequence (P19156 whole entry D138N/N139D): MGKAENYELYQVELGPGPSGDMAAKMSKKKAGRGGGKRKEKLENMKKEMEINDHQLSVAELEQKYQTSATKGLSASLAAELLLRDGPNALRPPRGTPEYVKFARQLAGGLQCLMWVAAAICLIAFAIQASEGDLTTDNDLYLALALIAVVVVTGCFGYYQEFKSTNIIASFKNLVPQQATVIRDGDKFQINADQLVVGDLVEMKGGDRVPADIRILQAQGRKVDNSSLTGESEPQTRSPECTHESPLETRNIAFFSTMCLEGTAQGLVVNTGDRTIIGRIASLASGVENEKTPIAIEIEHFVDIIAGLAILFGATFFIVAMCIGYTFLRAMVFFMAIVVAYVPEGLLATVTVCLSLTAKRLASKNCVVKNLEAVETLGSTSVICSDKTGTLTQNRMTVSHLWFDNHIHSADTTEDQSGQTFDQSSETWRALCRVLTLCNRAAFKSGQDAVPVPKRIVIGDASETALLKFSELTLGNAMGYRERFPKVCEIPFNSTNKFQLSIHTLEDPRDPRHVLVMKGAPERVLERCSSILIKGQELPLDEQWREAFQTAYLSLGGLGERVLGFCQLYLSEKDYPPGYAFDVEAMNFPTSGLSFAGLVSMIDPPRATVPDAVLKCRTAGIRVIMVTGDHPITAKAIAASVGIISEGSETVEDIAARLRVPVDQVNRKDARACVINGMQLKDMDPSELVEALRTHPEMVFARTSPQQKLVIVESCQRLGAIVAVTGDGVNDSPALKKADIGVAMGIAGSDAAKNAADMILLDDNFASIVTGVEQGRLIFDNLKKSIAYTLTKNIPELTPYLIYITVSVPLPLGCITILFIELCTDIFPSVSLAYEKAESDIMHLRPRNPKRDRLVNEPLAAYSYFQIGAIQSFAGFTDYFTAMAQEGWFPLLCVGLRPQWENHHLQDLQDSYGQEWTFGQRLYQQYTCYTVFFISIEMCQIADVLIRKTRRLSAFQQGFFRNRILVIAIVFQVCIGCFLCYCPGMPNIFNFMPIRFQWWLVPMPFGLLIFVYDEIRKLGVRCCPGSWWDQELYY
H^+,K^+-ATPase D137N/N138D, sequence (P18434 whole entry partner): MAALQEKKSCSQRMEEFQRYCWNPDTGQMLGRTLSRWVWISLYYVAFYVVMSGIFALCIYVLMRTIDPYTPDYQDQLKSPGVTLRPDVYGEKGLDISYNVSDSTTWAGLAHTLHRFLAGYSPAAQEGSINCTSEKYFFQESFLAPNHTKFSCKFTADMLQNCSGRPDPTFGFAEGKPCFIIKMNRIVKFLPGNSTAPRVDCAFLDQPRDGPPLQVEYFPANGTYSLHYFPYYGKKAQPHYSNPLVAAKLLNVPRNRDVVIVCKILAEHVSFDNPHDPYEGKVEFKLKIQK

H^+,K^+-ATPase = H^+,K^+-ATPase (Sus scrofa, UniProt P19156); experiment: Dose-dependent inhibition of H^+,K^+-ATPase activity in the presence of 10 mM KCl
[8] = target: H^+,K^+-ATPase A335C/C813A (Sus scrofa, UniProt P19156, A336C/C814A); experiment: ATPase assay, A335C/C813A mutant
H^+,K^+-ATPase D137N = H^+,K^+-ATPase D137N (Sus scrofa, UniProt P19156, D138N); experiment: ATPase assay, D137N mutant
H^+,K^+-ATPase D137N, sequence (P19156 whole entry D138N): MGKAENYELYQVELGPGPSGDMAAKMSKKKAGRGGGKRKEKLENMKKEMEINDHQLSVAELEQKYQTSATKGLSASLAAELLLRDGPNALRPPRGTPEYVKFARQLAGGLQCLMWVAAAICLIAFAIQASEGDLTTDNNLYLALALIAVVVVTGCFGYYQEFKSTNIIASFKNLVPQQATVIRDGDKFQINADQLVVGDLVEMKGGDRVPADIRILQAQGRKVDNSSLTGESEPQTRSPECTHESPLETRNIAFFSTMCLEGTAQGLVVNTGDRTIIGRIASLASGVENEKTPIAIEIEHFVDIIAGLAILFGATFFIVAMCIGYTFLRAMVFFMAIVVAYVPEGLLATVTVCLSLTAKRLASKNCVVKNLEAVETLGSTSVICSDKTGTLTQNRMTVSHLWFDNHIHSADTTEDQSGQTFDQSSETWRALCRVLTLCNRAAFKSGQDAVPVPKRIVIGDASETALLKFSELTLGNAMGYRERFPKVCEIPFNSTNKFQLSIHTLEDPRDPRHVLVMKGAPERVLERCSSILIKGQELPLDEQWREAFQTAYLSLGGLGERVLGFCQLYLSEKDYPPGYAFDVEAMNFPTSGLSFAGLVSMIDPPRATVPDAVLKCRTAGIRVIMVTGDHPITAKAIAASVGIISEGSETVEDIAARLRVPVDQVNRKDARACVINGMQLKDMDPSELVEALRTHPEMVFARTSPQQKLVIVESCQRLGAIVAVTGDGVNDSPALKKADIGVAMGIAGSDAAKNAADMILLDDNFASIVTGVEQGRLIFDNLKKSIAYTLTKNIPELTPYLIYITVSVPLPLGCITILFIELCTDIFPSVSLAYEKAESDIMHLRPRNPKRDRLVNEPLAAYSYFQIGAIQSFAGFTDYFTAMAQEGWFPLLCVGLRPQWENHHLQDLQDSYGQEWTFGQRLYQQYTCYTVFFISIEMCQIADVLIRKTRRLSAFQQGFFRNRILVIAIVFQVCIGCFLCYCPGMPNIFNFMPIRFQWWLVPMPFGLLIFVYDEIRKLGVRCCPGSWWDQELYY
H^+,K^+-ATPase D137N, sequence (P18434 whole entry partner): as the sequence (P18434 whole entry partner) above

H^+,K^+-ATPase A335G = H^+,K^+-ATPase A335G (Sus scrofa, UniProt P19156, A336G); experiment: ATPase assay, A335G mutant
H^+,K^+-ATPase D136A = H^+,K^+-ATPase D136A (Sus scrofa, UniProt P19156, D137A); experiment: ATPase assay, D136A mutant
H^+,K^+-ATPase WT = target: T1, H^+,K^+-ATPase WT (Sus scrofa, UniProt P19156); experiment: K^+-competitive inhibition of H^+,K^+-ATPase activity, 96-well ATPase assay, wild-type; format: biochemical, pig; settings: WT
T1 construct: made in house; host or cells: HEK293S GnT1- cells (BacMam baculovirus transduction); permeabilised membrane fractions

H^+,K^+-ATPase D136I = H^+,K^+-ATPase D136I (Sus scrofa, UniProt P19156, D137I); experiment: ATPase assay, D136I mutant
H^+,K^+-ATPase D137F = H^+,K^+-ATPase D137F (Sus scrofa, UniProt P19156, D138F); experiment: ATPase assay, D137F mutant
H^+,K^+-ATPase D137L = H^+,K^+-ATPase D137L (Sus scrofa, UniProt P19156, D138L); experiment: ATPase assay, D137L mutant
H^+,K^+-ATPase Y140A = H^+,K^+-ATPase Y140A (Sus scrofa, UniProt P19156, Y141A); experiment: ATPase assay, Y140A mutant
H^+,K^+-ATPase N138D = H^+,K^+-ATPase N138D (Sus scrofa, UniProt P19156, N139D); experiment: ATPase assay, N138D mutant
H^+,K^+-ATPase N138I = H^+,K^+-ATPase N138I (Sus scrofa, UniProt P19156, N139I); experiment: ATPase assay, N138I mutant
H^+,K^+-ATPase Y799F [9] = target: H^+,K^+-ATPase Y799F (Sus scrofa, UniProt P19156, Y800F); experiment: ATPase assay, Y799F mutant
H^+,K^+-ATPase L809F [10] = target: H^+,K^+-ATPase L809F (Sus scrofa, UniProt P19156, L810F); experiment: ATPase assay, L809F mutant
H^+,K^+-ATPase L139F = H^+,K^+-ATPase L139F (Sus scrofa, UniProt P19156, L140F); experiment: ATPase assay, L139F mutant
H^+,K^+-ATPase L139F, sequence (P19156 whole entry L140F): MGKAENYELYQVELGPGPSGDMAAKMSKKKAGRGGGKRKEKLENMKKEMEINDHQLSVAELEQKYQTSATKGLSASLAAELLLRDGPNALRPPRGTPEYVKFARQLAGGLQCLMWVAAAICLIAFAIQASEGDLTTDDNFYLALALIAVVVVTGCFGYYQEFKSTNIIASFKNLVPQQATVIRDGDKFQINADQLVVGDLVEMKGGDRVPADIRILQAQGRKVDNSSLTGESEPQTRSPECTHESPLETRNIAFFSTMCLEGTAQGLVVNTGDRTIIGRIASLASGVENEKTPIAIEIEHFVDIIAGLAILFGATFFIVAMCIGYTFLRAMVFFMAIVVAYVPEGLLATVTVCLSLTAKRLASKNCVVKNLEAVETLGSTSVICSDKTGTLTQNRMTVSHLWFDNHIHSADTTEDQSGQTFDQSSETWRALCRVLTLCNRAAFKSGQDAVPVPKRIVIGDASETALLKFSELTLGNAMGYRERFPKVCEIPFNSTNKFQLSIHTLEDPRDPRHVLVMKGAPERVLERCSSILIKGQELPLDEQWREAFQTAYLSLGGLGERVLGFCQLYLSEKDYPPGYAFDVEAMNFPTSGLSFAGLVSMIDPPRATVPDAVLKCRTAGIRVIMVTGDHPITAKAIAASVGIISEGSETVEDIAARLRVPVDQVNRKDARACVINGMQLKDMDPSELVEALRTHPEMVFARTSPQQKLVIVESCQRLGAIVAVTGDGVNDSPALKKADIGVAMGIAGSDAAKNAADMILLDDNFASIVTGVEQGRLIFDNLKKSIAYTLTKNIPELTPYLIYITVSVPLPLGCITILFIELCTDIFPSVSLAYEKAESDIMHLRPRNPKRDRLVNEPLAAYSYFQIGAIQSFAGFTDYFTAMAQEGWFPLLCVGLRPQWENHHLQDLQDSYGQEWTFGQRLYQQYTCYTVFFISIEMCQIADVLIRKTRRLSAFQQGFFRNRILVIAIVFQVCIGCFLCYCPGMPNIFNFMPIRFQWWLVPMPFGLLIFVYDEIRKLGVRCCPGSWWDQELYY
H^+,K^+-ATPase L139F, sequence (P18434 whole entry partner): as the sequence (P18434 whole entry partner) above

H^+,K^+-ATPase L141I = H^+,K^+-ATPase L141I (Sus scrofa, UniProt P19156, L142I); experiment: ATPase assay, L141I mutant
H^+,K^+-ATPase Y140L = H^+,K^+-ATPase Y140L (Sus scrofa, UniProt P19156, Y141L); experiment: ATPase assay, Y140L mutant
H^+,K^+-ATPase D136F = H^+,K^+-ATPase D136F (Sus scrofa, UniProt P19156, D137F); experiment: ATPase assay, D136F mutant
H^+,K^+-ATPase N138A = H^+,K^+-ATPase N138A (Sus scrofa, UniProt P19156, N139A); experiment: ATPase assay, N138A mutant
H^+,K^+-ATPase L139A = H^+,K^+-ATPase L139A (Sus scrofa, UniProt P19156, L140A); experiment: ATPase assay, L139A mutant
H^+,K^+-ATPase L139A, sequence (P19156 whole entry L140A): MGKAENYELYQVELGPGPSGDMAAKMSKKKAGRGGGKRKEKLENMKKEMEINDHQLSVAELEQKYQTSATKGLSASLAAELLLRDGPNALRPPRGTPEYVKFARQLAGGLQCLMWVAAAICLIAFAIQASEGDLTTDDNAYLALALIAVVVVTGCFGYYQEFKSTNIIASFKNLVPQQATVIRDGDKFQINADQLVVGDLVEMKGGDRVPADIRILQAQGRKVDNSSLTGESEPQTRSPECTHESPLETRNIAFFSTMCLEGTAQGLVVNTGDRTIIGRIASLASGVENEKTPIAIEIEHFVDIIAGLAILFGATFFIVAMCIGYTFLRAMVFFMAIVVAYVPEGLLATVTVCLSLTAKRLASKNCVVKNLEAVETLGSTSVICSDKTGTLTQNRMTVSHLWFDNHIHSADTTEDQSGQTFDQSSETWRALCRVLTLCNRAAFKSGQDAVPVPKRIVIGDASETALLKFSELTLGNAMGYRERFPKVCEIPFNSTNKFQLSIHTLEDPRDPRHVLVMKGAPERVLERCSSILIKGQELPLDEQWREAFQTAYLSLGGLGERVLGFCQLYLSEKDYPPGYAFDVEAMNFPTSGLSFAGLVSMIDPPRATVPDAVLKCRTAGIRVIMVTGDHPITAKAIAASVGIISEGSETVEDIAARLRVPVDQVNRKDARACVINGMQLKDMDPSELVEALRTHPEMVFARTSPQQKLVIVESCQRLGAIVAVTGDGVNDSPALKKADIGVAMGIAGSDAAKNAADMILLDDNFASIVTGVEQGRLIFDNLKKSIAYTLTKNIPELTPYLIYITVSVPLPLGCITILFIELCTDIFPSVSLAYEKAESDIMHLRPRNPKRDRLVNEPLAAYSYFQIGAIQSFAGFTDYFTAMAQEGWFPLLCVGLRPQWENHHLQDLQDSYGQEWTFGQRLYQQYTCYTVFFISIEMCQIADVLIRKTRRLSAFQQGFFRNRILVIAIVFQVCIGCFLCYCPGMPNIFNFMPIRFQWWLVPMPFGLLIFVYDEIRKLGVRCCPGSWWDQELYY
H^+,K^+-ATPase L139A, sequence (P18434 whole entry partner): as the sequence (P18434 whole entry partner) above

H^+,K^+-ATPase Y140I = H^+,K^+-ATPase Y140I (Sus scrofa, UniProt P19156, Y141I); experiment: ATPase assay, Y140I mutant
H^+,K^+-ATPase N138F = H^+,K^+-ATPase N138F (Sus scrofa, UniProt P19156, N139F); experiment: ATPase assay, N138F mutant
H^+,K^+-ATPase L139I = H^+,K^+-ATPase L139I (Sus scrofa, UniProt P19156, L140I); experiment: ATPase assay, L139I mutant
H^+,K^+-ATPase Y140F = H^+,K^+-ATPase Y140F (Sus scrofa, UniProt P19156, Y141F); experiment: ATPase assay, Y140F mutant
H^+,K^+-ATPase D137E = target: T2, H^+,K^+-ATPase D137E (Sus scrofa, UniProt P19156, D138E); experiment: ATPase assay, D137E mutant; format: biochemical, pig
T2 construct: made in house; host or cells: HEK293S GnT1- cells (BacMam baculovirus transduction), membrane fraction

For `Cc1nc2c(OCc3ccccc3)cccn2c1CC#N` [SCH28080], the protonation [1] is listed as “approximately 2.5%”, the “fold low apparent affinity (IC 50)” value (H^+,K^+-ATPase Y799A [2]) is listed as ~ 100 fold and 100 fold and the fold reduced affinity (H^+,K^+-ATPase L809F [3]; L809F vs wild-type, previously reported) is listed as “more than 90 fold”. The Ki (H^+,K^+-ATPase L809F [3]; L809F) was 6.15 µM, the “effect on affinity (in words)” value (H^+,K^+-ATPase Y799F [4]) was “negligible effects” and the Ki [5] was > 40 µM. For the same compound, the “affinity (in words)” value [5] was “almost no affinity”.
For `Cc1cn2cccc(OCc3ccccc3)c2n1` [SCH-CN^−], the Ki (H^+,K^+-ATPase Y799A [6]) was 81 ± 15 µM, the “-fold increase in K i compared with wild-type” value (“-fold increase in K i” for short) (H^+,K^+-ATPase Y799A [6]; Y799A) was 25 fold and the Ki (H^+,K^+-ATPase D137A) was 28 ± 2 µM. The “-fold increase in K i” value (H^+,K^+-ATPase D137A; D137A) was 8.8 fold, the Ki (H^+,K^+-ATPase D136L) was 3.3 ± 0.2 µM and the “-fold increase in K i” value (H^+,K^+-ATPase D136L; D136L) was 1.0 fold. The Ki (H^+,K^+-ATPase N138L) was 14 ± 2 µM, the “-fold increase in K i” value (H^+,K^+-ATPase N138L; N138L) was 4.4 fold and the Ki (H^+,K^+-ATPase D137I) was 39 ± 7 µM. The “-fold increase in K i” value (H^+,K^+-ATPase D137I; D137I) was 12 fold, the “-fold increase in K i” value [7] was 7.2 fold and the Ki ([7]; global fitting) was 23 ± 20 µM. For the same compound, the IC50 (H^+,K^+-ATPase) was 110 µM, the Ki [8] was 71 ± 10 µM and the “-fold increase in K i” value ([8]; A335C/C813A) was 22 fold. For the same compound, the Ki (H^+,K^+-ATPase D137N) was 120 ± 30 µM, the “-fold increase in K i” value (H^+,K^+-ATPase D137N; D137N) was 38 fold and the Ki (H^+,K^+-ATPase A335G) was 1 ± 0.1 µM. The “-fold increase in K i” value (H^+,K^+-ATPase A335G; A335G) was 0.3 fold, the Ki (H^+,K^+-ATPase D136A) was 5.1 ± 0.4 µM and the “-fold increase in K i” value (H^+,K^+-ATPase D136A; D136A) was 1.6 fold. The “-fold increase in K i” value (H^+,K^+-ATPase WT) was 1.0 fold, the Ki (H^+,K^+-ATPase WT; global fitting, mean ± SEM) was 3.2 ± 0.3 µM and the Ki (H^+,K^+-ATPase D136I) was 4.1 ± 0.3 µM. The “-fold increase in K i” value (H^+,K^+-ATPase D136I; D136I) was 1.3 fold, the Ki (H^+,K^+-ATPase D137F) was 47 ± 6 µM and the “-fold increase in K i” value (H^+,K^+-ATPase D137F; D137F) was 15 fold. The Ki (H^+,K^+-ATPase D137L) was 32 ± 6 µM, the “-fold increase in K i” value (H^+,K^+-ATPase D137L; D137L) was 10 fold and the Ki (H^+,K^+-ATPase Y140A) was 7.3 ± 1 µM. For the same compound, the “-fold increase in K i” value (H^+,K^+-ATPase Y140A; Y140A) was 2.3 fold, the Ki (H^+,K^+-ATPase N138D) was 2.6 ± 0.2 µM and the “-fold increase in K i” value (H^+,K^+-ATPase N138D; N138D) was 0.8 fold. The Ki (H^+,K^+-ATPase N138I) was 3.7 ± 0.7 µM, the “-fold increase in K i” value (H^+,K^+-ATPase N138I; N138I) was 1.2 fold and the Ki (H^+,K^+-ATPase Y799F [9]) was 18 ± 2 µM. For the same compound, the “-fold increase in K i” value (H^+,K^+-ATPase Y799F [9]; Y799F) was 5.6 fold, the Ki (H^+,K^+-ATPase L809F [10]) was 98 ± 12 µM and the “-fold increase in K i” value (H^+,K^+-ATPase L809F [10]; L809F) was 31 fold. For the same compound, the Ki (H^+,K^+-ATPase L139F) was 6.6 ± 0.5 µM, the “-fold increase in K i” value (H^+,K^+-ATPase L139F; L139F) was 2.1 fold and the Ki (H^+,K^+-ATPase L141I) was 2.4 ± 0.2 µM. The “-fold increase in K i” value (H^+,K^+-ATPase L141I; L141I) was 0.8 fold, the Ki (H^+,K^+-ATPase Y140L) was 2.7 ± 0.2 µM and the “-fold increase in K i” value (H^+,K^+-ATPase Y140L; Y140L) was 0.8 fold. The Ki (H^+,K^+-ATPase D136F) was 2.9 ± 0.1 µM, the “-fold increase in K i” value (H^+,K^+-ATPase D136F; D136F) was 0.9 fold and the Ki (H^+,K^+-ATPase N138A) was 4.2 ± 0.5 µM. For the same compound, the “-fold increase in K i” value (H^+,K^+-ATPase N138A; N138A) was 1.3 fold, the Ki (H^+,K^+-ATPase L139A) was 3.3 ± 0.3 µM and the “-fold increase in K i” value (H^+,K^+-ATPase L139A; L139A) was 1.0 fold. For the same compound, the Ki (H^+,K^+-ATPase Y140I) was 2.1 ± 0.2 µM, the “-fold increase in K i” value (H^+,K^+-ATPase Y140I; Y140I) was 0.7 fold and the Ki (H^+,K^+-ATPase N138F) was 52 ± 9 µM. For the same compound, the “-fold increase in K i” value (H^+,K^+-ATPase N138F; N138F) was 16 fold, the Ki (H^+,K^+-ATPase L139I) was 1.1 ± 0.1 µM and the “-fold increase in K i” value (H^+,K^+-ATPase L139I; L139I) was 0.3 fold. The Ki (H^+,K^+-ATPase Y140F) was 3.7 ± 0.2 µM, the “-fold increase in K i” value (H^+,K^+-ATPase Y140F; Y140F) was 1.2 fold and the “-fold increase in K i” value (H^+,K^+-ATPase D137E) was 1.4 fold. It also gave a Ki (H^+,K^+-ATPase D137E; high H^+-ATPase activity, K i' determined by K m/V max plot) of 4.4 ± 0.4 µM.
